Where two headings read alike, the source gives them in different places.
Legend:
[1] = tested on: NCI-N87 cells (human stomach cancer cell strain); test: in vivo anti-tumor assessment, NCI-N87 cells transplanted into mammary fat pad of nude mouse
Experimental: NCI-N87 cells (human stomach cancer cell strain) were transplanted into a mammary fat pad of a female nude mouse (BALB/cA Jcl-nu/nu, CLEA Japan, Inc) at 5×10^6 cells/mouse (day 0). On day 5, a long diameter and a short diameter of a tumor were measured with a caliper, and mice were divided into groups (N=6) so that a tumor size between groups became equal. A test compound (20, 80 mg/kg) suspended in a 0.5% methylcellulose (MC) solution was orally administered from day 5 on for 15 consecutive days, and the anti-tumor effect was expressed by a ratio (T/C %) of an average value of a tumor size between a compound-administered group (T) and a control (C, 0.5% MC) group on day 20.
Results of in vivo anti-tumor assessment of a compound VIII-11 are shown in Table 54, and results of in vivo anti-tumor assessment of a compound VIII-66 are shown in Table 55.

[2] = target: T1, HER2 (Homo sapiens, UniProt P04626); test: Enzyme inhibitory activity on HER2 (time resolution fluorescence, biotinylated poly-Glu-Tyr substrate); format: biochemical
T1 construct: purchased Carna Biosciences, Inc; host or cells: insect cell expression system
Method in brief: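 Insect-cell-expressed HER2 (1000 ng/ml working stock) with biotinylated poly-Glu-Tyr (4:1; 3.125 μg/ml stock) and ATP (290 μM solution) in TBS with MgCl2, MnCl2, Na3VO4 and BSA, 60 min at room temperature. 10-point 4-fold dilutions from a 1 mM top solution. Phosphotyrosine detected by TR-FRET with Eu-antibody and streptavidin-XL.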

[3] = target: T2, EGFR (Homo sapiens, UniProt P00533); test: Enzyme inhibitory activity on EGFR (time resolution fluorescence, biotinylated poly-Glu-Tyr substrate); format: biochemical
T2 construct: purchased Carna Biosciences, Inc; host or cells: insect cell expression system
Method in brief: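 Insect-cell-expressed EGFR phosphorylated biotinylated poly-Glu-Tyr (4:1) for 60 min at room temperature in TBS with MgCl2, MnCl2, Na3VO4 and BSA. Enzyme 250 ng/ml, substrate 3.125 μg/ml and ATP 125 μM as working solutions. EDTA stop; Eu anti-phosphotyrosine/streptavidin-XL time-resolved fluorescence read; 10-point 4-fold dilutions.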

[4] = tested on: BT-474; test: In vitro cell proliferation inhibition, WST assay; format: cell-based, human; details: BT-474 cells, cultured for 3 days, read-out: BT-474 (nM) proliferation inhibitory activity (IC50 value)
Experimental: Test of In Vitro Cell Proliferation Inhibition of Test Compound
As a human-derived cancer cell strain, BT-474 was used. Cells were all cultured in a 37° C., 5% CO2 incubator in a medium in which 10% bovine fetal serum (ICN) and 50 units ml penicillin/60 μg/ml streptomycin solution (GIBCO) were added to Dulbecco's Modified Essential Medium (DMEM, Nacalai Tesque, Inc).

[5] = day 5 (start of administration, grouping), 20 mg/kg administrated group, oral, N=6
[6] = day 5 (start of administration, grouping), 80 mg/kg administrated group, oral, N=6
[7] = day 20, 20 mg/kg orally for 15 consecutive days from day 5
[8] = day 20, 80 mg/kg orally for 15 consecutive days from day 5
[9] = HER2 purified from insect cell expression system, ATP solution 290 μM, room temperature, 60 minutes
[10] = EGFR purified from insect cell expression system, ATP solution 125 μM, room temperature, 60 minutes
[11] = enzyme reaction at room temperature for 60 minutes

T2 sequence (P00533 25-1210): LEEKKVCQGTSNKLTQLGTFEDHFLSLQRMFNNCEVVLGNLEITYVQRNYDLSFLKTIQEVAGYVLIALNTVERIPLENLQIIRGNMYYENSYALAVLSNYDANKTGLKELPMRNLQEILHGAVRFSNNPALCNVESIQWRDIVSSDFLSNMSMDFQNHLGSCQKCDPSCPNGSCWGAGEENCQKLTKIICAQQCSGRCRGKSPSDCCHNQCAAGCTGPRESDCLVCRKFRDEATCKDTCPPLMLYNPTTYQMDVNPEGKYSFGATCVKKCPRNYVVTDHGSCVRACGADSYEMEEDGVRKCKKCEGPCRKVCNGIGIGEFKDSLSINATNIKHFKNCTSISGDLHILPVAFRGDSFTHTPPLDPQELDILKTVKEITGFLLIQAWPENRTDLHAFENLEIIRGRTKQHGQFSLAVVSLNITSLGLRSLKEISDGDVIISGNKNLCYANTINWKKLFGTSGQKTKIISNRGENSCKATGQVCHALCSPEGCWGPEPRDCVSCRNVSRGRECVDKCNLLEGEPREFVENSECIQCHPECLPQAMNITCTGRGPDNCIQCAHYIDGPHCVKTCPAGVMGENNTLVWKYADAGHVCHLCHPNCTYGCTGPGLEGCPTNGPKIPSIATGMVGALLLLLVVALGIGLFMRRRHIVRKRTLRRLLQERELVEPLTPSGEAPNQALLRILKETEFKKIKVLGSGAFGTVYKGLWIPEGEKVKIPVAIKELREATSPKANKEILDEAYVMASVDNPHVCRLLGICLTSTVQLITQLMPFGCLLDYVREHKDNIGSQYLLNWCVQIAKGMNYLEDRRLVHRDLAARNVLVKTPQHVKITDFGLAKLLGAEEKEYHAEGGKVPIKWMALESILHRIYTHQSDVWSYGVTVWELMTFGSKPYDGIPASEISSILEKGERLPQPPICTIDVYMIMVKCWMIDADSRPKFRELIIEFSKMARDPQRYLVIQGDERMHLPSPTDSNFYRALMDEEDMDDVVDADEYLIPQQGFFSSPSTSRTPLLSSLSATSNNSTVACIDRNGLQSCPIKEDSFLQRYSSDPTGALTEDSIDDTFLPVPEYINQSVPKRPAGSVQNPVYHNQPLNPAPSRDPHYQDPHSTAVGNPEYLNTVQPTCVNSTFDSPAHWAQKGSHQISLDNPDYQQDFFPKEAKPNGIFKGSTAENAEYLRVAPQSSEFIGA
T1 sequence (P04626 23-1255): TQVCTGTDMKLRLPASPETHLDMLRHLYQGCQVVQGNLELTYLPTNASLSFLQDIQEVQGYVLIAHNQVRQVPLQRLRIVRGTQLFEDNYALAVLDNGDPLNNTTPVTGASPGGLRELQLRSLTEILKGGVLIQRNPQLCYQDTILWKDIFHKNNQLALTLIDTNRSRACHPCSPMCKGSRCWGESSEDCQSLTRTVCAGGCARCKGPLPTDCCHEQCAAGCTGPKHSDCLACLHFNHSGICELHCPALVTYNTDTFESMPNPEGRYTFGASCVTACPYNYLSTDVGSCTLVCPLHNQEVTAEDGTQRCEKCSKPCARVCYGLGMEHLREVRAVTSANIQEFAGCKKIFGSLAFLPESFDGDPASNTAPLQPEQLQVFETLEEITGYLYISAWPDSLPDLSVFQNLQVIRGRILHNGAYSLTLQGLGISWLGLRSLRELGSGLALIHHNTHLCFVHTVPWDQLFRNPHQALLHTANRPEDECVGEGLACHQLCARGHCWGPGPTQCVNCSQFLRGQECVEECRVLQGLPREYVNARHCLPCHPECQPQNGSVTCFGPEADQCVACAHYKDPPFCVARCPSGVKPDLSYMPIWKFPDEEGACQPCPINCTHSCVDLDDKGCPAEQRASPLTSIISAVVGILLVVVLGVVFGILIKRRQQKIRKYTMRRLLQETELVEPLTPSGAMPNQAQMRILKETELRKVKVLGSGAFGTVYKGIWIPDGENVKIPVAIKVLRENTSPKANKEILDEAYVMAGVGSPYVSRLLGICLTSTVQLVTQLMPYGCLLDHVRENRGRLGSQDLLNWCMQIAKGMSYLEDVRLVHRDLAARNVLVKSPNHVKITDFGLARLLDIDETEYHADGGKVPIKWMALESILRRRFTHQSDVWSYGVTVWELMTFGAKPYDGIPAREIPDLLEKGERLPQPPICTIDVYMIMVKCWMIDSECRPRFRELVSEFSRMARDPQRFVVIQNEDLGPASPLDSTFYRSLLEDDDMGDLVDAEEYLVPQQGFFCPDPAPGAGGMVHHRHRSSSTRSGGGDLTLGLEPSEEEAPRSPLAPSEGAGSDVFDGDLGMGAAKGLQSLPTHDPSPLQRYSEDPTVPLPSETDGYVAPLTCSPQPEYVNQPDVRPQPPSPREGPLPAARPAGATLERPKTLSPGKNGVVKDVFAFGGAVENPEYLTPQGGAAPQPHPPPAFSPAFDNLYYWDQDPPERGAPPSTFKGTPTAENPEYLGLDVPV

Compound	IC50 [2, 9]	IC50 [3, 10]	IC50 [4]	IC50 ([4]; Homo sapiens, BT-474, 72 h)	IC50 [2, 11]	IC50 [3, 11]	further results
CC#C/C(=N\OCCN(C)CCO)c1ccc2ncnc(Nc3ccc(OCc4cccc(F)c4)c(Cl)c3)c2c1.Cl.Cl [VIII-66]	43 nM	27 nM	8 nM				Mean of tumor size [1, 5]: 134 mm^3; Mean of tumor size [1, 6]: 150 mm^3; Mean of tumor size [1, 7]: 154 mm^3; T/C % (ratio of average tumor size, compound-administered group vs control group) [1, 7]: 32%; Mean of tumor size [1, 8]: 17 mm^3; T/C % (ratio of average tumor size, compound-administered group vs control group) [1, 8]: 4%
C=CC(=O)N1CCN(CCON=Cc2ccc3ncnc(Nc4ccc(OCc5cccc(F)c5)c(Cl)c4)c3c2)CC1 [Compound V-43, 4-(3-chloro-4-(3-fluorobenzyloxy)phenylamino)-6-(2-(4-acryloyl-1-piperazin-1-yl)ethoxyimino)methylquinazoline]	151 nM	186 nM		71 nM			
CC#C/C(=N\OCCN)c1ccc2ncnc(Nc3ccc(OCc4cccc(F)c4)c(Cl)c3)c2c1 [VIII-42]	11 nM	10 nM	24 nM				
CC#C/C(=N\OC[C@@H]1CCC(=O)N1)c1ccc2ncnc(Nc3ccc(OCc4cccc(F)c4)c(Cl)c3)c2c1 [VIII-83]	121 nM	164 nM	13 nM				
CC#CC(=NOCC1CN(C)CCN1C)c1ccc2ncnc(Nc3ccc(OCc4cccc(F)c4)c(Cl)c3)c2c1 (stereo not drawn) [VIII-108]	56 nM	53 nM		31 nM			
CC#C/C(=N\OCCNC)c1ccc2ncnc(Nc3ccc(Sc4ccccc4)cc3)c2c1 [VIII-213]				33 nM	25 nM	18 nM	
CC#C/C(=N\OCCN1CCCC1)c1ccc2ncnc(Nc3ccc(OCc4cccc(F)c4)c(Cl)c3)c2c1 [VIII-11]	45 nM	43 nM		26 nM			Mean of tumor size [1, 5]: 197 mm^3; Mean of tumor size [1, 6]: 197 mm^3; Mean of tumor size [1, 7]: 356 mm^3; T/C % (ratio of average tumor size, compound-administered group vs control group) [1, 7]: 54%; Mean of tumor size [1, 8]: 193 mm^3; T/C % (ratio of average tumor size, compound-administered group vs control group) [1, 8]: 29%
CC#C/C(=N\OCCNC)c1ccc2ncnc(Nc3ccc(S(=O)(=O)c4ccccc4)cc3)c2c1 [VIII-214]				25 nM	3.3 nM	4.5 nM	
CC#C/C(=N\OCCN1CCC(NS(C)(=O)=O)CC1)c1ccc2ncnc(Nc3ccc(OCc4cccc(F)c4)c(Cl)c3)c2c1 [VIII-100]	203 nM	208 nM		16 nM			
CC#C/C(=N\OC[C@@H]1C[C@H](O)CN1)c1ccc2ncnc(Nc3ccc(OCc4cccc(F)c4)c(Cl)c3)c2c1 [VIII-82]	7.5 nM	7.6 nM	16 nM				
CC#C/C(=N\OC[C@@H]1C[C@H](O)CN1)c1ccc2ncnc(Nc3ccc4c(cnn4Cc4cccc(F)c4)c3)c2c1 [VIII-194]			25 nM		13 nM	8.6 nM	
CC#C/C(=N\OC[C@@H]1CNCC(=O)N1)c1ccc2ncnc(Nc3ccc(OCc4ccccn4)c(Cl)c3)c2c1 [VIII-179]				48 nM	5 nM	4.6 nM	
CC#C/C(=N\OCCN1C[C@@H](C)O[C@@H](C)C1)c1ccc2ncnc(Nc3ccc(OCc4cccc(F)c4)c(Cl)c3)c2c1 [VIII-93]	321 nM	453 nM		38 nM			
CC#C/C(=N\OCCNC[C@H]1CCCO1)c1ccc2ncnc(Nc3ccc(OCc4cccc(F)c4)c(Cl)c3)c2c1 [VIII-48]	15 nM	44 nM	28 nM				
CS(=O)(=O)CCNCCON=C(c1ccccc1)c1ccc2ncnc(Nc3ccc(OCc4cccc(F)c4)c(Cl)c3)c2c1 [VIII-29]	513 nM	102 nM		77 nM			
CC/C(=N\OCCN1CCOCC1)c1ccc2ncnc(Nc3ccc(OCc4cccc(F)c4)c(Cl)c3)c2c1 [VIII-7]	348 nM	103 nM		63 nM			
CC#C/C(=N\OCCN(C)CCOC)c1ccc2ncnc(Nc3ccc(OCc4ccccn4)c(Cl)c3)c2c1 [VIII-146]				45 nM	10 nM	12 nM	
CC#C/C(=N\OC[C@@H]1CCCN1)c1ccc2ncnc(Nc3ccc(OCc4ccccn4)c(Cl)c3)c2c1 [VIII-153]				21 nM	11 nM	10 nM	
